Each molecule was assayed on IL-6 (assay: AGE (G-HSA)-induced inflammatory response determined by IL-6 ELISA in HAEC). Settings: Homo sapiens, 24 h, Compds tested @ 10 uM, IL6, read-out: % IL6 production compare to AGE stimulation of IL6 (100%).
Type: cell-based, human
Description: Human aortic endothelial cells (HAEC, Clonetics) were cultured according to manufacturer in growth medium (Clonetics): basal medium containing human epidermal growth factor, hydrocortisone, vascular endothelial growth factor, heparin binding growth factor-B, long R3-insulin-like growth factor-1, ascorbic acid, gentamicin/amphotericin and 5% FBS. These cell were allowed to reach at least 90% confluency before subjected to experimental treatments. […] Tumor necrosis factor α was from R&D Systems.
All treatments, compound-added and controls were carried out in serum free media containing 0.2% albumin. Media from all conditions were collected and used for IL-6 ELISA.
IL-6 ELISA was carried out using human IL-6 DuoSet ELISA development kit as described by manufacturer (R&D Systems). Mouse anti-human Il-6 was used as the capture antibody (2 ug/ml) and biotinylated goat anti-human IL-6 (200 ng/ml) was used as the detection antibody. Culture media were incubated with capture antibody (in 96 well) for 2 h at room temperature. Wells were washed three times with wash buffer (0.05% tween-20 in phosphate buffered saline (PBS) pH 7.4) followed by incubation with detection antibody for 2 h at room temperature. Following three washes wells were incubated with Streptavidin-HRP for 20 min. Color development was read at 450 nm in a Microplate reader.

Question: For `CCN1CCCC1CNc1nc(NC2CCCCCC2)nc(N(C)c2ccc(Cl)cc2)n1` (stereo not drawn) [Compound 40, N^2-(4-chlorophenyl)-N^4-cycloheptyl-N^6-[(1-ethyl-2-pyrrolidinyl)methyl]-N^2-methyl-1,3,5-triazine-2,4,6-triamine], which activity at 10 µM is on record?
Answer: Its activity at 10 µM is 19%.

Question: With `CCN1CCCC1CNc1nc(Nc2ccc(C#N)cc2)nc(NC2CCCCCC2)n1` (stereo not drawn) [Compound 11, 4-[(4-(cycloheptylamino)-6-{[(1-ethyl-2-pyrrolidinyl)methyl]amino}-1,3,5-triazin-2-yl)-amino]benzonitrile] as the molecule, how does the activity at 10 µM read?
Answer: The activity at 10 µM was 1%.

Question: For `CCN1CCCC1CNc1nc(Nc2ccc(N(C)C)cc2)nc(NC2CCCCCC2)n1` (stereo not drawn) [Compound 25, N^2-cycloheptyl-N^4-[4-(dimethylamino)phenyl]-N^6-[(1-ethyl-2-pyrrolidinyl)methyl]-1,3,5-triazine-2,4,6-triamine], which activity at 10 µM is on record?
Answer: Its activity at 10 µM is 1%.

Question: For `CCN1CCCC1CNc1nc(NC2CCCCCC2)nc(N(CC#N)c2ccccc2)n1` (stereo not drawn) [Compound 44, [(4-(cycloheptylamino)-6-{[(1-ethyl-2-pyrrolidinyl)methyl]amino}-1,3,5-triazin-2-yl)(phenyl)amino]acetonitrile], which activity at 10 µM is on record?
Answer: The activity at 10 µM was 1%.

Question: With `CCN1CCCC1CNc1nc(Nc2ccc(OC)c(F)c2)nc(N2CCN(C)CC2)n1` (stereo not drawn) [Compound 62, N^2-[(1-ethyl-2-pyrrolidinyl)methyl]-N^4-(3-fluoro-4-methoxyphenyl)-6-(4-methyl-1-piperazinyl)-1,3,5-triazine-2,4-diamine] as the molecule, how does the activity at 10 µM read?
Answer: Its activity at 10 µM is 42%.

Question: Which activity at 10 µM does the source give for `CCN1CCCC1CNc1nc(NC2CCCCCC2)nc(N(CCC#N)c2ccccc2)n1` (stereo not drawn) [Compound 41, 3-[(4-(cycloheptylamino)-6-{[(1-ethyl-2-pyrrolidinyl)methyl]amino}-1,3,5-triazin-2-yl)-(phenyl)amino]propanenitrile] here?
Answer: The activity at 10 µM was 18%.

Question: With `CCN1CCCC1CNc1nc(NCCCN2CCCC2=O)nc(Nc2ccc(OC)c(F)c2)n1` (stereo not drawn) [Compound 74, 1-[3-({4-{[(1-ethyl-2-pyrrolidinyl)methyl]amino}-6-[(3-fluoro-4-methoxyphenyl)amino]-1,3,5-triazin-2-yl}amino)propyl]-2-pyrrolidinone] as the molecule, how does the activity at 10 µM read?
Answer: Its activity at 10 µM is 49%.

Question: How did the activity at 10 µM turn out when `CCN1CCCC1CNc1nc(Nc2ccc(F)cc2)nc(NC2CCCCCC2)n1` (stereo not drawn) [Compound 10, N^2-cycloheptyl-N^4-[(1-ethyl-2-pyrrolidinyl)methyl]-N^6-(4-fluorophenyl)-1,3,5-triazine-2,4,6-triamine] was run?
Answer: Its activity at 10 µM is 1%.

Question: `COc1ccc(Nc2nc(NCCCn3ccnc3)nc(NC3CCCCCC3)n2)cc1F` [Compound 100, N^2-cycloheptyl-N^4-(3-fluoro-4-methoxyphenyl)-N^6-[3-(1H-imidazol-1-yl)propyl]-1,3,5-triazine-2,4,6-triamine] was tested. Which activity at 10 µM did it give?
Answer: Its activity at 10 µM is 1%.

Question: `CCN1CCCC1CNc1nc(NCC(F)(F)F)nc(Nc2ccc(OC)c(F)c2)n1` (stereo not drawn) [Compound 67, N^2-[(1-ethyl-2-pyrrolidinyl)methyl]-N^4-(3-fluoro-4-methoxyphenyl)-N^6-(2,2,2-trifluoroethyl)-1,3,5-triazine-2,4,6-triamine] was tested. Which activity at 10 µM did it give?
Answer: Its activity at 10 µM is 39%.

Question: `CCN1CCCC1CNc1nc(NC2CCCCCC2)nc(N(C)c2ccc(F)cc2F)n1` (stereo not drawn) [Compound 43, N^2-cycloheptyl-N^4-(2,4-difluorophenyl)-N^6-[(1-ethyl-2-pyrrolidinyl)methyl]-N^4-methyl-1,3,5-triazine-2,4,6-triamine] was tested. Which activity at 10 µM did it give?
Answer: Its activity at 10 µM is 4%.

Question: Which activity at 10 µM does the source give for `CCN1CCCC1CNc1nc(Nc2ccc3c(c2)OCCO3)nc(NC2CCCCCC2)n1` (stereo not drawn) [Compound 24, N^2-cycloheptyl-N^4-(2,3-dihydro-1,4-benzodioxin-6-yl)-N^6-[(1-ethyl-2-pyrrolidinyl)methyl]-1,3,5-triazine-2,4,6-triamine] here?
Answer: Its activity at 10 µM is 1%.

Same assay, conditions: Homo sapiens, 24 h, Compds tested @ 10 uM, read-out: % IL6 production compare to AGE stimulation of IL6 (100%)

Question: With `CN1CCC(N(C)c2nc(Nc3ccc4ccccc4c3)nc(NC3CC3)n2)CC1` [Compound 180, N-Cyclopropyl-N′-methyl-N′-(1-methyl-piperidin-4-yl)-N″-naphthalen-2-yl-[1,3,5]triazine-2,4,6-triamine] as the molecule, how does the activity at 10 µM read?
Answer: The activity at 10 µM was 5%.

Same assay, conditions: Homo sapiens, IL6, unit inferred, read-out: IC50 (AGE stimulation of IL6)

Question: How did the IC50 turn out when `CCN1CCCC1CNc1nc(Nc2ccc(C#N)cc2)nc(NC2CCCCCC2)n1` (stereo not drawn) [Compound 11, 4-[(4-(cycloheptylamino)-6-{[(1-ethyl-2-pyrrolidinyl)methyl]amino}-1,3,5-triazin-2-yl)-amino]benzonitrile] was run?
Answer: The IC50 was 8.87 µM.

Question: With `CCN1CCCC1CNc1nc(NC2CCCCCC2)nc(N(CC#N)c2ccccc2)n1` (stereo not drawn) [Compound 44, [(4-(cycloheptylamino)-6-{[(1-ethyl-2-pyrrolidinyl)methyl]amino}-1,3,5-triazin-2-yl)(phenyl)amino]acetonitrile] as the molecule, how does the IC50 read?
Answer: The IC50 was 7.1 µM.
